Key:
healthy adult subjects = test: Study 1 (SAD) safety and tolerability: TEAEs; assay type: in vivo
Source text: Study 1 (B7921001; NCT02224651) was a 96-day, phase 1, within-cohort, randomized, double-blind, sponsor-open, placebo-substitution, five-period crossover, SAD study in healthy adult subjects (Fig. 1a). Subjects were sequentially enrolled into four cohorts of ten subjects each. Within each cohort, the subjects were randomized into a maximum of five periods. Within each period, eight subjects and two subjects were randomized to receive PF-06650833 and placebo, respectively. In this placebo-substitution design, all subjects within a cohort received one or more doses of PF-06650833 and/or placebo. Single oral doses of PF-06650833 IR formulations from 1 to 6000 mg, and MR formulations from 30 to 300 mg, were administered in fasted (overnight fast of ≥ 10 h) and/or fed (high-fat breakfast meal) states. Doses were escalated sequentially by period within each cohort (see Fig. 1a for final dosing scheme), based upon the evaluation of ≥ 48 h of safety and tolerability for all subjects and ≥ 8 h of PK data for at least six subjects receiving PF-06650833 and one subject receiving placebo. Dose escalation was to cease when either the limits of safety and/or tolerability were reached, the projected exposure at the subsequent dose exceeded the toxicokinetic limit (TK) established based on the no observable adverse effect level (NOAEL) in relevant animal studies, or a plateau in exposure was reached.
The effects of food on the plasma PK profile of the IR and MR formulations were explored in cohorts 1 and 3, respectively, by administering 30 mg doses of PF-06650833 in a fasted state and after a high-fat meal. A 1000-mg dose of the IR formulation was also tested in cohort 3 in an attempt to identify a maximum tolerated dose (MTD). Since TK limits were not reached with the IR formulation at doses up to 1000 mg, the IR doses were escalated to 2000 and 6000 mg with a high-fat meal in cohort 4 (Fig. 1a).
Safety assessments included incidence and severity of treatment-emergent AEs (TEAEs) and discontinuation due to TEAEs, incidence of treatment-emergent clinical laboratory abnormalities, and proportion of subjects meeting with pre-defined criteria for potential clinical concern in vital signs and electrocardiogram (ECG) parameters.
The safety analysis set was defined as all subjects who received at least one dose of study treatment, and data were summarized descriptively. The PK concentration analysis set was defined as all enrolled, treated subjects who had at least one concentration in at least one treatment period. The PK parameter analysis set was defined as all enrolled, treated subjects who had at least one of the PK parameters of interest in at least one treatment period. The PD analysis set was defined as all enrolled subjects who received at least one dose of PF-06650833 and had at least one PD parameter. PK/PD data were summarized descriptively.

[1] = tested on: high-sensitivity C-reactive protein (hsCRP); test: Study 2 (MAD) serum hsCRP pharmacodynamics; assay type: in vivo, human
Source text: The primary objective of study 2 was to determine the safety and tolerability of MAD of orally administered IR and MR formulations of PF-06650833 after a standard meal in healthy adult subjects. The secondary objective was to evaluate the plasma and urine PK profiles of PF-06650833 after repeat dosing. Exploratory objectives were to assess the effects of PF-06650833 on exploratory biomarkers of PD activity, including high-sensitivity C-reactive protein (hsCRP), and to evaluate cholesterol/hydroxycholesterol ratios as an endogenous marker for cytochrome P450 3A (CYP3A) induction or inhibition.
For both studies, samples of blood (and urine in study 2) were taken for evaluation of PK/PD parameters (see Additional file 1: Supplemental Methods). PK samples were obtained at the nominal time relative to dosing (± 10%). Plasma and urine samples were analyzed using validated, sensitive, and specific liquid chromatography tandem mass spectrometric methods (at Pfizer Inc., Groton, CT, USA, for study 1 and at Worldwide Pharmacokinetics, Dynamics and Metabolism, Cambridge, MA, USA, for study 2). The lower limit of quantification for PF-06650833 in plasma was 0.0500 ng/mL. The lower limit of quantification for PF-06650833 in urine was 1.00 ng/mL. Serum samples were also analyzed for hsCRP, and plasma samples were analyzed for 4β-hydroxycholesterol and cholesterol.
The safety analysis set was defined as all subjects who received at least one dose of study treatment, and data were summarized descriptively. The PK concentration analysis set was defined as all enrolled, treated subjects who had at least one concentration in at least one treatment period. […]
35 Plasma samples were analyzed using a validated, sensitive , and specific liquid […]
38 MA, USA for Study 2). The lower limit of quantification (LLOQ) for PF-06650833 in plasma
39 was 0.0500 ng/mL. Between-day assay accuracy values were also calculated (not shown). […]
44 cohorts. Urine samples were also analyzed using a validated, sensitive , and specific LC-MS […]

[2] = IR 2000 mg single dose, fed (high-fat), 8 evaluable

Structure (SMILES): CC[C@@H]1[C@H](F)C(=O)N[C@@H]1COc1nccc2cc(C(N)=O)c(OC)cc12 [PF-06650833, 1-{[(2S,3S,4S)-3-Ethyl-4-fluoro-5-oxopyrrolidin-2-yl]methoxy}-7-methoxyisoquinoline-6-carboxamide]
- Infections and infestations: subjects with AE, all causalities (treatment-related) (healthy adult subjects; IR 1 mg single dose, fasted, 8 evaluable): 1 (0)
- Infections and infestations: subjects with AE, all causalities (treatment-related) (healthy adult subjects; [2]): 1 (0)
- Upper respiratory tract infection: subjects with AE, all causalities (treatment-related) (healthy adult subjects; [2]): 1 (0)
- Serious AEs or deaths (healthy adult subjects; all dose groups): No serious AEs or deaths
- Subjects with treatment-related TEAEs (healthy adult subjects; human, in vivo): 4
- Total treatment-related TEAEs (healthy adult subjects; human, in vivo): 10
- Severity of TEAEs (healthy adult subjects; in vivo): mild or moderate
- Treatment-related TEAEs (healthy adult subjects; in vivo): No treatment-related TEAEs
- Maximum tolerated dose (healthy adult subjects; single doses IR up to 6000 mg, MR up to 300 mg): not established
- Day by which maximal hsCRP reduction was reached ([1]; IR ≥ 250 mg BID and MR 300 mg QD): ≤ 7 days
- Change from baseline in serum hsCRP ([1]; IR ≥ 250 mg BID and MR 300 mg QD, multiple dosing): sustained decrease
- Reduction from baseline in hsCRP (geometric mean percentage) ([1]; day 14, highest dose groups): 60–70%

From publication PMC6896740, “Safety, tolerability, pharmacokinetics, and pharmacodynamics of PF-06650833, a selective interleukin-1 receptor-associated kinase 4 (IRAK4) inhibitor, in single and multiple ascending dose randomized phase 1 studies in healthy subjects” (Arthritis Research & Therapy, 2019)
